Source: patent US20160374944A1, “COMPOSITIONS AND METHODS FOR TREATING AND PREVENTING CANCER BY TARGETING AND INHIBITING CANCER STEM CELLS” (priority 2011, published 2016)

Experiments:
[1] = system: human pancreatic cancer cells
[2] = system: pancreatic cancer stem cells
Prostate CSCs [3] = assay: spheroid formation and cell viability in spheroids (trypan blue); format: cell-based, human; settings: 7 and 14 days, embelin 0-6 μM, rottlerin 0-2 μM
Procedure: (§1) In particular, embelin is shown to inhibit spheroid and colony formation, and induce caspase-3 and apoptosis. (A) Prostate CSCs were grown in CSC medium and treated with embelin (0-6 μM) for 7 days to obtain primary spheroids. At the end of incubation period, spheroids were collected, reseeded and treated with embelin for another week to obtain secondary spheroids. Cell viability in spheroids was measured by trypan blue assay at the end of 7 and 14 days. […] (B) Prostate CSCs were seeded in soft agar and treated with embelin (0-6 μM) for 21 days. […] (C and D) Activation of caspase-3 and induction of apoptosis is shown.
as §1, with “(A)” for “In particular, embelin is shown to inhibit spheroid and colony formation, and induce caspase-3 and apoptosis. (A)”, “rottlerin (0-2” for “embelin (0-6”, “rottlerin” for “embelin”, “apoptosis.” for “apoptosis is shown.”
The effects of embelin on growth of prostate CSCs was studied by measuring cell viability and colony formation, as shown in FIGS. 9A and 9B. […]

Prostate CSCs [4] = assay: gene expression by qRT-PCR; format: cell-based, human; settings: 24 h
Procedure: FIG. 15 is a graph showing that rottlerin inhibits the expression of survivin, XIAP, Bcl-2 and Bcl-XL in prostate CSCs. Prostate CSCs were treated with rottlerin (0-2 μM) for 24 h, and the expression of survivin, XIAP, Bcl-2 and Bcl-XL was measured by the q-RT-PCR. […] Data were normalized with GAPDH.
FIG. 16 is a graph showing the regulation by rottlerin of cMyc, Nanog, Oct3/4 and Sox-2 in prostate CSCs. Prostate CSCs were treated with rottlerin (0-1 μM) for 24 h. The expression of cMyc, Nanog, Oct3/4 and Sox-2 was measured by qRT-PCR. […] Data were normalized with GAPDH.
(§2) FIG. 17 graphs showing the regulation of Shh, Notch and TGFβ pathways by rottlerin. […] The expression of Patched-1, Patched-2, SMO, Gli1 and Gli2 was measured by qRT-PCR. […] Data were normalized with GAPDH. (D) Prostate CSCs were treated with rottlerin (0-1 μM) for 24 h. The expression of Notch1, Notch3 and JAG1 was measured by qRT-PCR. (E) TCF/LEF-1, Gli and Notch reporter activities. Prostate CSCs were transduced with a mixture of TCF/LEF1-, Gli-, or Notch-responsive firefly luciferase construct and Renilla luciferase construct (40:1) along with lipofectamine. After transduction, medium was changed and CSCs were treated with rottlerin (0-2 μM) for 24 h. […] (F) Immunofluorescence analysis of Gli1 and Gli2 expression in prostate CSCs. Green=Gli1 or Gli2; red=nucleus.

[5] = system: TCF/LEF-1 reporter activity in prostate CSCs; assay: TCF/LEF1-responsive dual luciferase reporter; format: cell-based, human; settings: rottlerin 0-2 μM, 24 h, dual luciferase assay
Procedure: as §2

[6] = system: Gli1 and Gli2 in prostate CSCs; assay: immunofluorescence analysis of Gli1 and Gli2 expression; format: cell-based, human; settings: measured by IFC
Procedure: as §2

C[S+]([O-])CCCCN=C=S (centres unmarked) [sulforaphane]
growth of human pancreatic cancer cells [1]: inhibits the growth | growth of pancreatic cancer stem cells [2]: inhibits the growth

CC(=O)c1c(O)c(C)c(O)c(Cc2c(O)c3c(c(C(=O)/C=C/c4ccccc4)c2O)OC(C)(C)C=C3)c1O [rottlerin]
size of primary and secondary spheroids in suspension (Prostate CSCs [3]; data not shown): inhibited the size | cell viability in spheroids (Prostate CSCs [3]; primary and secondary spheroids, trypan blue): inhibited | expression of Bcl-2 (Prostate CSCs [4]; normalized with GAPDH): inhibited the expression | expression of Bcl-XL (Prostate CSCs [4]; normalized with GAPDH): inhibited the expression | expression of Gli1 (Prostate CSCs [4]; normalized with GAPDH): inhibited the expression | expression of Gli2 (Prostate CSCs [4]; normalized with GAPDH): inhibited the expression | expression of Nanog (Prostate CSCs [4]; normalized with GAPDH): inhibited the expression | expression of Oct3/4 (Prostate CSCs [4]; normalized with GAPDH): inhibited the expression | expression of Patched-1 (Prostate CSCs [4]; normalized with GAPDH): inhibited the expression | expression of Patched-2 (Prostate CSCs [4]; normalized with GAPDH): inhibited the expression | expression of SMO (Prostate CSCs [4]; normalized with GAPDH): inhibited the expression | expression of Sox-2 (Prostate CSCs [4]; normalized with GAPDH): inhibited the expression | expression of XIAP (Prostate CSCs [4]; normalized with GAPDH): inhibited the expression | expression of cMyc (Prostate CSCs [4]; normalized with GAPDH): inhibited the expression | expression of survivin (Prostate CSCs [4]; normalized with GAPDH): inhibited the expression | expression of JAG1 (Prostate CSCs [4]; rottlerin 0-1 μM): inhibited the expression | expression of Notch1 (Prostate CSCs [4]; rottlerin 0-1 μM): inhibited the expression | expression of Notch3 (Prostate CSCs [4]; rottlerin 0-1 μM): inhibited the expression | TCF/LEF1 responsive reporter activity [5]: inhibited the TCF/LEF1, Gli1 and Notch responsive reporter activities in a dose-dependent manner | nuclear expression of constitutively active Gli1 [6]: inhibited the nuclear expression | nuclear expression of constitutively active Gli2 [6]: inhibited the nuclear expression
